Measured values published in patent US11702415B2, “Crystalline hydrate of a JAK inhibitor compound” (THERAVANCE BIOPHARMA R&D IP, LLC, priority 2020, dated 2023).

Assays:
[1] = tested on: IL-13 induced pSTAT6 in lung tissue; experiment: Murine model of IL-13 induced pSTAT6 induction in lung tissue; type: in vivo; conditions: mouse lung, oral aspiration 1 mg/mL 50 μL, IL-13 challenge 4 h after dose
Description: IL-13 binds to cell surface receptors activating members of the Janus family of kinases (JAK) which then phosphorylate STAT6 and subsequently activates further transcription pathways. In the described model, a dose of IL-13 was delivered locally into the lungs of mice to induce the phosphorylation of STAT6 (pSTAT6) which is then measured as the endpoint.
Activity in the model is evidenced by a decrease in the level of pSTAT6 present in the lungs of treated animals at 5 hours compared to the vehicle treated, IL-13 challenged control animals. The difference between the control animals which were vehicle-treated, IL-13 challenged and the control animals which were vehicle-treated, vehicle challenged dictated the 0% and 100% inhibitory effect, respectively, in any given experiment.

[2] = Stability study at accelerated temperature and relative humidity (HPLC); type: physicochemical; conditions: samples of Form I
[3] = Pharmacokinetics in plasma and lung in mouse; type: in vivo; conditions: single oral aspiration, 0.2 mg/mL 50 μL
Description: Plasma and lung concentrations of test compound and ratio thereof were determined in the following manner. BALB/c mice from Charles River Laboratories were used in the assay. […] At various time points (typically 0.167, 2, 6, 24 hr) post dosing, blood samples were removed via cardiac puncture and intact lungs were excised from the mice.

Lung S9 metabolism = type: in vitro ADME, human; conditions: for Compound Remaining at 60 min: human lung S9, 1 μM compound, 1 mg/mL protein, NADPH and PAPS; for Sulfate Appearance: human lung S9, qualitative, O-sulfate metabolite peak
Description: The in vitro metabolic stability of compounds 1 and C-1 were evaluated in human lung S9 fraction (1 μM compound; 1 mg/mL S9 protein). The time 0, 15, 30, and 60 minute samples were analyzed for parent compound by high resolution LC-MS/MS. Lung S9 fractions from human (lot 1410245) were purchased from XenoTech LLC (Lenexa, Kans.). NADPH (Sigma Aldrich, N1630) and 3-phosphoadenosine 5-phosphosulfate (PAPS) (Sigma Aldrich, A1651) were purchased from Sigma Aldrich (St. Louis, Mo.). Acetonitrile and water were obtained from VWR (Radnor, Pa.) and were of HPLC grade or better. Raloxifene and formic acid was purchased from Sigma Aldrich (St. Louis, Mo.). Lung S9 incubations were performed in a water bath at 37° C. in a 96-well polypropylene plate. Lung S9 solutions consisted of 100 mM potassium phosphate buffered to pH 7.4 (BD Biosciences, Woburn, Mass.) supplemented with 1 mM NADPH (Sigma-Aldrich, St. Louis, Mo.), 3 mM magnesium chloride (Sigma Aldrich, M1028) and in the presence of 100 μM PAPS (Sigma-Aldrich, St. Louis, Mo.) cofactor, with final incubation protein concentrations of 1 mg/mL. 10 mM DMSO stocks of Raloxifene (n=1) and compound (n=1) were diluted in buffer and spiked into the incubations to yield 1 μM substrate concentrations ([…]). Incubation volumes consisted of 400 μL and time points were taken at 0, 15, 30, and 60 minutes by the removal of a 70 μL aliquot and dilution into 140 μL acetonitrile (0% formic acid). All samples were centrifuged at 2250 g for 10 minutes at 5° C. Supernatant (50 μL) was taken from the centrifuged samples and diluted into 100 μL HPLC water containing internal standard. The samples were run on a Dionex Ultimate 3000 Auto sampler and analyzed using a Thermo Q-Exactive High Resolution Mass Spectrometer (Thermo, Waltham, Mass.) in Full Scan mode in conjunction with an Atlantis T3 column 3 μM-2.1×50 mm (Waters Inc., 186003717). Mobile Phase A consisted of Water+0.2% formic acid and Mobile Phase B consisted of acetonitrile+0.2% formic acid. Peak integration was accomplished using Gubbs GMSU software (Gubbs Inc., Alpharetta, Ga.). For each sample, peak area ratios were calculated by dividing the analyte peak area by the internal standard peak area. For each incubation, the peak area ratios of the analytes in each t0 was set to 100%, and the peak areas ratios from the 60-minute samples were converted to percentages remaining relative to the corresponding t0. Determination of sulfate metabolite formation was made qualitatively by observation of early-eluting peak in the parent ion channel which, based on historical internal data, corresponded to the O-sulfate metabolite of each parent compound.

[4] = tested on: hospitalized patients with COVID-19; conditions: in combination with remdesivir versus placebo with remdesivir, within 29 days after initiating treatment; cited from earlier work
[5] = Dynamic moisture sorption assessment; type: physicochemical
Description: Dynamic moisture sorption (DMS) measurement was performed using a VTI atmospheric microbalance, SGA-100 system (VTI Corp., Hialeah, Fla. 33016). A weighed sample was used and the humidity was lowest possible value (close to 0% RH) at the start of the analysis. The DMS analysis consisted of an initial drying step (˜0% RH) for 16 hours, followed by two cycles of sorption and desorption with a scan rate of 5% RH/step over the humidity range of 5% RH to 90% RH. The DMS run was performed isothermally at 25° C.

[6] = tested on: patients with steroid-refractory acute or chronic GVHD; conditions: 95 patients, salvage therapy, including lung GVHD; cited from earlier work

With CCc1cc(O)ccc1-c1ccc2c(-c3nc4c([nH]3)CN(C(C)C)[C@H](C(=O)N3CC(N(C)C)C3)C4)n[nH]c2c1 [Compound 1, (S)-(3-(dimethylamino)azetidin-1-yl)(2-(6-(2-ethyl-4-hydroxyphenyl)-1H-indazol-3-yl)-5-isopropyl-4,5,6,7-tetrahydro-3H-imidazo[4,5-c]pyridin-6-yl)methanone] the “pSTAT6 inhibition at 5 hours” value [1] was 75, the “Compound 1 content by HPLC” value ([2]; T = 0) was 97.5% a/a and the “Compound 1 content by HPLC” value ([2]; T = 1 month, 40° C./75% RH) was 97.5% a/a. The “Compound 1 content by HPLC” value ([2]; T = 3 month, 25° C./60% RH) was 97.6% a/a, the “Compound 1 content by HPLC” value ([2]; T = 3 month, 40° C./75% RH) was 97.5% a/a and the “Lung Tissue AUC(0-24)” value [3] was 54.5 µg·h/g. For the same compound, the “sulfation metabolism compared to fluoro analog C-1” value (Lung S9 metabolism; human lung S9) was “significantly less sulfation metabolism”, the “Compound Remaining at 60 min” value (Lung S9 metabolism) was 81% and the “Sulfate Appearance” value (Lung S9 metabolism) was “Yes”.
For CCc1cc(O)c(F)cc1-c1ccc2c(-c3nc4c([nH]3)CN(C(C)C)[C@H](C(=O)N3CC(N(C)C)C3)C4)n[nH]c2c1 [Compound C-1, (S)-(3-(dimethylamino)azetidin-1-yl)(2-(6-(2-ethyl-5-fluoro-4-hydroxyphenyl)-1H-indazol-3-yl)-5-isopropyl-4,5,6,7-tetrahydro-3H-imidazo[4,5-c]pyridin-6-yl)methanone, reference compound], the “Compound Remaining at 60 min” value (Lung S9 metabolism) was 6% and the “Sulfate Appearance” value (Lung S9 metabolism) was “Yes”.
In the case of CCS(=O)(=O)N1CC(CC#N)(n2cc(-c3ncnc4[nH]ccc34)cn2)C1 [baricitinib], the time to recovery [4] is given as “reduce time to recovery”.
For CCc1cc(O)ccc1-c1ccc2c(-c3nc4c([nH]3)CN(C(C)C)[C@H](C(=O)N3CC(N(C)C)C3)C4)n[nH]c2c1 [Form I, (S)-(3-(dimethylamino)azetidin-1-yl)(2-(6-(2-ethyl-4-hydroxyphenyl)-1H-indazol-3-yl)-5-isopropyl-4,5,6,7-tetrahydro-3H-imidazo[4,5-c]pyridin-6-yl)methanone hydrate Form I], the hygroscopicity ([5]; dynamic moisture sorption, 25° C.) was “moderately hygroscopic” and the total moisture uptake ([5]; relative humidity between 0% and 90% at room temperature) was “about 5.3%”.
In the case of N#CC[C@H](C1CCCC1)n1cc(-c2ncnc3[nH]ccc23)cn1 [ruxolitinib], the “clinical response in GVHD patients” value [6] is listed as “complete or partial response to ruxolitinib in the majority of patients”.
